1 compound from paper PMC5520691, “An enhanced bioluminescence-based Annexin V probe for apoptosis detection in vitro and in vivo” (Cell Death & Disease, 2017) can be followed below.

Molecules are shown by their SMILES.

For this assay, the target named is T1, ArFP (Annexin V-Renilla luciferase RLuc8 fusion protein) (Homo sapiens, UniProt P08758).
T1 construct: gene ANXA5; Annexin V fused N-terminal to the RLuc8 reporter (Renilla reniformis luciferase mutant) via a short linker (GGSGGS by the primers); N-terminal 6xHis tag, pET-30 Xa/LIC, E. coli T7 Express, Ni-NTA; primers cover the Annexin V start (ATGGCACAGGTTCTC, MAQVL) and end (CGEDD)
T1 sequence (P08758 1-320): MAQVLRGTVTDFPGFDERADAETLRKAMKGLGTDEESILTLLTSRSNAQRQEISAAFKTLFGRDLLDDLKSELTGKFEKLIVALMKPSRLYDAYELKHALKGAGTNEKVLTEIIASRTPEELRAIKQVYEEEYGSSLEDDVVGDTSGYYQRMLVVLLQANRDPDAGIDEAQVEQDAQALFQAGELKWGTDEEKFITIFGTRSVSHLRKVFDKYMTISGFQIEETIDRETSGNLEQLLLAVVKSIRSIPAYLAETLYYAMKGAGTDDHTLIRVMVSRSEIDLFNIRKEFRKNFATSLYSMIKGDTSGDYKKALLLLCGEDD
The assay is described as follows: isothermal titration calorimetry, vesicles titrated into protein, independent binding model. The note with it: read-out: Binding affinity for PS (KD). A general note: Isothermal titration calorimetry measures the heat released or taken up as one component is titrated into another.

Consider `CCCCCCCC/C=C\CCCCCCCC(=O)O[C@H](COC(=O)CCCCCCCCCCCCCCC)COP(=O)(O)OC[C@H](N)C(=O)O` [POPS, 1-palmitoyl-2-oleoyl-sn-glycero-3-[phospho-L-serine]], for which the Kd was determined as 20.7 µM.

For orientation: Kd means the free concentration of one partner at which half of the binding sites on the other are occupied at equilibrium, for simple one-to-one binding.
